Measurements published in patent US20230270148A1, “BITTER BLOCKERS AND RELATED METHODS OF USE” (Conagen Inc., priority 2020, published 2023).

Tests used:
[1] = tested on: individual donor-derived hTBECs; assay: Cell calcium mobilization assay; assay type: cell-based, human
Description: (§1) The bitter blocker candidates were further characterized using bitter-responsive human taste bud tissue-derived cells (hTBEC) platforms and bioassays. Bitter-responsive hTBECs were treated with hitter blocker candidates and various bitter agonists to assess the efficacy of each bitter blocker candidate in reducing the bitterness of each of the various bitter agonists.
Calcium mobilization response following treatment of 100 μM Dextromethorphan-HBr, 3000 μM Theobromine, and 3 mM Caffeine was evaluated in individual donor-derived hTBECs.

[2] = tested on: dark roast coffee; assay: Sensory evaluation: bitterness reduction of dark roast coffee; assay type: in vivo; conditions: dosage 50 or 100 ppm per sample
Description: (§2) The bitterness blocker candidates listed in Table 1 were prepared into a 1% sample solution with propylene glycol and heated to ensure complete solubilization. […] A trained sensory evaluator was asked to estimate the perceived bitterness reduction against the control, as well as to provide comments on how the addition of the individual sample solution modulated the taste and mouth feel profile of the resulting dark roast coffee.

[3] = tested on: caffeine in water; assay: Two-alternative forced choice (2AFC) difference test; assay type: in vivo
Description: The bitter blocker candidates BB09, BB11, and BB13 were subject to a two-alternative forced choice (2AFC) difference test wherein panelists were presented Control Caffeine solutions and Test solutions containing caffeine and one of three bitterness blocker candidates (BB09, BB 11, or BB13). Panelists were asked to evaluate the two samples and answer the question, “which one is more hitter?”
BB09 and BB11 were tested first. Three ounces of control (caffeine in water), BB09 in caffeine water, and BB11 in caffeine water were presented at room temperature in separate plastic souffle cups labeled with 3-digit codes. Ten sensory trained panelists evaluated each sample in three repetitions with a 10 minute break between repetitions. Panelists then completed the 2AFC. Data was collected on EveQuestion and analyzed on XLSTAT. Testing was conducted at Sensations Research according to FEMA guidelines.
BB13 was tested separately. Two ounces of control (caffeine in water), BB13 in caffeine water were presented at room temperature in separate plastic souffle cups labeled with 3-digit codes. Fifteen participants evaluated each sample in two repetitions with a 10 minute break between repetitions for a total of thirty evaluations as per the FEMA guidelines. Panelists then completed the 2AFC to identify the more bitter sample. Data was collected and analyzed on Compusense.

[4] = tested on: peach-flavored energy drink (caffeine, B vitamins); assay: Sensory evaluation: bitterness reduction of a peach-flavored energy drink; assay type: in vivo; conditions: dosage per sample
Description: as §2, with “peach-flavored energy drink.” for “dark roast coffee.”

[5] = tested on: bitter-responsive human taste bud tissue-derived cells (hTBEC); assay: ATP secretion detection assay (luminescence); assay type: cell-based
Description: as §1
One industry standard bitter agonist was used as a control (L-Praziquantel), and five bitter blocker controls were used (Senomyx BB68, STX-001, sodium gluconate, eridictyol, and homoeridictyol).
BB09, BB11, and BB13 were first tested at various concentrations in combination with 100 μM Dextromethorphan-HBr.
Next, bitter blocker concentration ranges were narrowed (100 μM-1,000 μM) and compared to a fixed concentration of stimulus. […] BB13 was evaluated further by real time ATP secretion detection in pooled hTBEC 66 cells treated with 300 μM Theobromine.
Each culture was treated with BB09, BB11, BB13, STX001, or Senomyx BB68, as well as either Dextromethorphan-HBr at 1000 μM (FIGS. 18A-18C), Theobromine at 1,000 μM (FIGS. 19A-19C), Rebaudioside A at 1 mM (FIGS. 20A-20C), or Caffeine at 3 mM (FIGS. 21A-21C).

[6] = of thirty evaluations (15 participants, 2 repetitions)

`O=C1C[C@@H](c2ccc(O)c(O)c2)Oc2c1c(O)cc(O)c2[C@@H]1O[C@H](CO)[C@@H](O)[C@H](O)[C@H]1O` [BB13, Eriodictyol-8-C-β-glucoside] was tested, and the “inhibition of calcium mobilization induced by Dextromethorphan-HBr” value ([1]; 100 μM Dextromethorphan-HBr, blocker 0.3 μM to 1,000 μM, at high concentrations (FIG. 25)) was “inhibited calcium mobilization”, the “inhibition of calcium mobilization induced by Caffeine” value ([1]; 3 mM Caffeine, blocker 1,000 μM, hTBEC 56 cells (FIG. 27)) was “inhibited calcium mobilization” and the “inhibition of calcium mobilization induced by Theobromine” value ([1]; 3000 μM Theobromine, blocker 1 μM to 3,000 μM, at high concentrations (FIG. 26)) was “inhibited calcium mobilization”. The Comments [2] was “Very smooth with nice upfront”, the “significance of bitterness difference control vs sample” value ([3]; 90% and 95% confidence interval (FIG. 11)) was “control sample was significantly more bitter” and the “panelists' description of samples” value ([3]; blocker in caffeine water) was “initial sweetness that mask the bitterness, less lingering bitterness, and having a nutty taste”. The “evaluations identifying the sample containing the blocker as more bitter” value [3, 6] was “three”, the “evaluations selecting control as more bitter” value [3, 6] was “Twenty-seven” and the Comments [4] was “Excellent bitter blocking”. The “inhibition of luminescence signal from Dextromethorphan-HBr” value ([5]; 100 μM Dextromethorphan-HBr, blocker 100 μM-1,000 μM, upper concentrations, individual donor-derived hTBECs (FIG. 14A)) was “inhibited luminescence signal”, the “inhibitory activity against Dextromethorphan-HBr (ATP secretion)” value ([5]; 100 μM Dextromethorphan-HBr, blocker 1 mM, all three hTBEC cultures (FIG. 22A)) was “consistently showed inhibitory activity” and the “inhibition of luminescence activity of Dextromethorphan-HBr (ATP secretion)” value ([5]; 100 μM Dextromethorphan-HBr, various blocker concentrations (FIG. 12)) was “able to inhibit”. For the same molecule, the “inhibition of luminescence signal from L-Praziquantel” value ([5]; 400 μM L-Praziquantel, blocker 100 μM-1,000 μM, upper concentrations, individual donor-derived hTBECs (FIG. 14B)) was “inhibited luminescence signal”, the “inhibitory activity against L-Praziquantel (ATP secretion)” value ([5]; 400 μM L-Praziquantel, blocker 1 mM, all three hTBEC cultures (FIG. 24)) was “consistently showed inhibitory activity” and the “inhibition of the L-Praziquantel response (ATP secretion)” value ([5]; 400 μM L-Praziquantel, pooled donor-derived hTBEC (FIG. 13)) was “showed inhibition”. For the same molecule, the “inhibitory activity against Rebaudioside A (ATP secretion)” value ([5]; 1 mM Rebaudioside A, blocker 1 mM, all three hTBEC cultures (FIG. 23A)) was “consistently showed inhibitory activity”, the “real time Rebaudioside A-induced ATP secretion” value ([5]; 1 mM Rebaudioside A, blocker 1,000 μM, pooled hTBEC 56 cultures (FIG. 17)) was “attenuated” and the “inhibitory activity against Theobromine (ATP secretion)” value ([5]; 1,000 μM Theobromine, blocker 1 mM, all three hTBEC cultures (FIG. 22B)) was “consistently showed inhibitory activity”. For the same molecule, the “inhibitory activity against Caffeine (ATP secretion)” value ([5]; 3 mM Caffeine, blocker 1 mM, all three hTBEC cultures (FIG. 23B)) was “consistently showed inhibitory activity”, the “inhibition of Rebaudioside A-induced ATP secretion” value ([5]; 3 mM Rebaudioside A, pooled hTBEC 56 cultures, blocker 100, 300 or 1,000 μM (FIG. 16)) was “strongest inhibition” and the “inhibition of the bitter agonists (ATP secretion)” value ([5]; hTBEC 66, hTBEC 56, hTBEC Donor H, Dextromethorphan-HBr at 1000 μM, Theobromine 1,000 μM, Rebaudioside A 1 mM or Caffeine 3 mM (FIGS. 18-21)) was “most consistent inhibition”. For the same molecule, the “real time ATP secretion response to Theobromine” value ([5]; pooled hTBEC 66 cells, 300 μM Theobromine, blocker at 1 mM (FIG. 15)) was “attenuated the Theobromine-stimulated signal”.
